For assay [1], the target named is T1, recombinant human 17β-HSD1 (Homo sapiens, UniProt P14061).
T1 construct: made in house; host or cells: Sd9 (Sf9) insect cells, baculovirus (Bac to Bac Expression System)
T1 sequence (P14061 1-328): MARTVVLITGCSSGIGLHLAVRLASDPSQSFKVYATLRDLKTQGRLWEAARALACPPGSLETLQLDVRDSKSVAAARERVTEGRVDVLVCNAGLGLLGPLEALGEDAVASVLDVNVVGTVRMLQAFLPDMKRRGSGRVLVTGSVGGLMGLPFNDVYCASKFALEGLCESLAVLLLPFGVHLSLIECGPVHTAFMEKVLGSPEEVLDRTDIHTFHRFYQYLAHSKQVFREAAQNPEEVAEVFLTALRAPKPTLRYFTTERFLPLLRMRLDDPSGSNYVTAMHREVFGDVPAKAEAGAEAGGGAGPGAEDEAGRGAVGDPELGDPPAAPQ
Kind of assay: Inhibition of recombinant human 17β-HSD1 (estrone to estradiol conversion, HPLC/radioactivity). It is filed as biochemical. The settings on record: compound 100 nM; 30 nM estrone, 1 mM NADPH, 30 min RT. The procedure, abridged:
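Microsomal human 17β-HSD1 from Sf9 baculovirus (1 μg/ml) was incubated 30 min at RT in 20 mM KH2PO4 pH 7.4 with 30 nM ^3H-estrone, 1 mM NADPH and inhibitor at 1 μM or 0.1 μM (1% DMSO). Estrone and estradiol were separated by HPLC with radioactivity detection. % inhibition = 100 − % conversion relative to uninhibited control.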

Assay [2] has as its target T2, recombinant human 17β-HSD2 (Homo sapiens, UniProt P37059).
T2 construct: made in house; host or cells: Sd9 (Sf9) insect cells, baculovirus (Bac to Bac Expression System)
T2 sequence (P37059 1-387): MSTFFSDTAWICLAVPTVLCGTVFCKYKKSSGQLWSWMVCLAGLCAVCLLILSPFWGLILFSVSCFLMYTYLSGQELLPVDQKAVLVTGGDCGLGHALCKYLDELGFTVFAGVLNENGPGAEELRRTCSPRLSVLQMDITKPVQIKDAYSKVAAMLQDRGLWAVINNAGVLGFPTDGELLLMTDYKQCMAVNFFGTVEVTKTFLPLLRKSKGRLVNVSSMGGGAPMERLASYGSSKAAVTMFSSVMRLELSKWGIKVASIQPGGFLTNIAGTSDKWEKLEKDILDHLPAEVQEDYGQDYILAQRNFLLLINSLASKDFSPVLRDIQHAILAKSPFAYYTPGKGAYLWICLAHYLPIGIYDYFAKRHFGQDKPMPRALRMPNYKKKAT
Kind of assay: Inhibition of recombinant human 17β-HSD2 (estradiol to estrone conversion, HPLC/radioactivity). It is filed as biochemical. The settings on record: compound 1 μM; 50 nM estradiol, 1 mM NADH, 30 min RT. The method, boiled down: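 Membrane extract of Sf9 cells expressing recombinant human 17β-HSD2 (4 μg/ml), in 20 mM KH2PO4 pH 8.5 with 50 nM ^3H-spiked estradiol and 1 mM NADH, 30 min at RT, 1% DMSO. Compound at 1 μM or 0.1 μM; estrone formation by HPLC radioactivity, % inhibition relative to uninhibited conversion.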

Results on 4 compounds are retold here after patent US20220041647A1, “ESTRA-1,3,5(10)-TRIENE COMPOUNDS CONDENSED IN POSITION 16(17) WITH A PYRAZOLE RING AS INHIBITORS OF 17-HSD1” (FORENDO PHARMA LTD, priority 2018, published 2022).

The structures appear in SMILES notation.

Take `CCN(CC)C(=O)CC[C@@H]1c2c[nH]nc2[C@@]2(C)CCC3c4cccc(F)c4CCC3C12` (stereo partly drawn) [Compound 216, N,N-diethyl-3-((8aS,12S)-3-fluoro-8a-methyl-1,2,6b,7,8,8a,10,12,12a,12b-decahydronaphtho[2′,1′:4,5]indeno[1,2-c]pyrazol-12-yl)propanamide]: in assay [1], the inhibition at 0.1 µM came out at 93%. In addition, in assay [2], the inhibition at 1 µM came out at 6%.

For `C[C@]12CCC3c4cccc(F)c4CCC3C1[C@H](CCC(=O)N1CCC3(CCOCC3)C1)c1c[nH]nc12` (stereo partly drawn) [Compound 219, 3-((8aS,12S)-3-fluoro-8a-methyl-1,2,6b,7,8,8a,10,12,12a,12b-decahydronaphtho[2′,1′:4,5]indeno[1,2-c]pyrazol-12-yl)-1-(8-oxa-2-azaspiro[4.5]decan-2-yl)propan-1-one], the inhibition at 0.1 µM in assay [1] was determined as 91%. Besides, the inhibition at 1 µM in assay [2] turned out to be 3%.

`CN(C)C(=O)CC[C@@H]1c2c[nH]nc2[C@@]2(C)CCC3c4cccc(F)c4CCC3C12` (stereo partly drawn) [Compound 222, 3-((8aS,12S)-3-fluoro-8a-methyl-1,2,6b,7,8,8a,10,12,12a,12b-decahydronaphtho[2′,1′:4,5]indeno[1,2-c]pyrazol-12-yl)-N,N-dimethylpropanamide]: the inhibition at 0.1 µM in assay [1] is 91%. The inhibition at 1 µM in assay [2] was 0%.

On to `C[C@]12CCC3c4cccc(F)c4CCC3C1[C@H](CCC(=O)Nc1ncccc1F)c1c[nH]nc12` (stereo partly drawn) [Compound 231, 3-((8aS,12S)-3-fluoro-8a-methyl-1,2,6b,7,8,8a,10,12,12a,12b-decahydronaphtho[2′,1′:4,5]indeno[1,2-c]pyrazol-12-yl)-N-(3-fluoropyridin-2-yl)propanamide], for which the inhibition at 0.1 µM in assay [1] was determined as 86%. For the same compound, the inhibition at 1 µM in assay [2] was 4%.

The term inhibition denotes the drop in the measured response relative to a control, in per cent.
